One may read the IC50 as the concentration that gives 50% inhibition. For orientation: inhibition means how much of the control response was suppressed.

The first experiment has as its target T1, human PPARγ (Homo sapiens, UniProt P37231).
T1 construct: 1.6 kb of fragment of the prepared plasmid pGEMT-hPPARg2 including human PPARγ gene; expressed in transfected cells; host or cells: CV-1 cells, transient transfection with pCI-hPPARg2, pCI-hRXRa and the reporter pGL3-PPRE3-TK
T1 sequence (P37231 1-505): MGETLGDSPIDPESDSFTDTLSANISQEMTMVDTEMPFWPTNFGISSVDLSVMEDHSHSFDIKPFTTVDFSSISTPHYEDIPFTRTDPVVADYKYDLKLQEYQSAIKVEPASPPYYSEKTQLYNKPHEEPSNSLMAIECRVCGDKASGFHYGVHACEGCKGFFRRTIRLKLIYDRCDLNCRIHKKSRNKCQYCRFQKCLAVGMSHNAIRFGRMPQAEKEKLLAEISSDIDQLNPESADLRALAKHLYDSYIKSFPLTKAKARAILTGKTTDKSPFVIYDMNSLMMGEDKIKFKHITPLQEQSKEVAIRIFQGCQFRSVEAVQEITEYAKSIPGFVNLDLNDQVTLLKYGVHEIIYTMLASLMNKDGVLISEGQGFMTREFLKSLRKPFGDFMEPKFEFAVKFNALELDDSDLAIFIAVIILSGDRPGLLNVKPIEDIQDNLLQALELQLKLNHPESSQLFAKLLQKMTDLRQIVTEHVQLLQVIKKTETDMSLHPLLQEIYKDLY
T1 sequence (P19793 1-462 partner): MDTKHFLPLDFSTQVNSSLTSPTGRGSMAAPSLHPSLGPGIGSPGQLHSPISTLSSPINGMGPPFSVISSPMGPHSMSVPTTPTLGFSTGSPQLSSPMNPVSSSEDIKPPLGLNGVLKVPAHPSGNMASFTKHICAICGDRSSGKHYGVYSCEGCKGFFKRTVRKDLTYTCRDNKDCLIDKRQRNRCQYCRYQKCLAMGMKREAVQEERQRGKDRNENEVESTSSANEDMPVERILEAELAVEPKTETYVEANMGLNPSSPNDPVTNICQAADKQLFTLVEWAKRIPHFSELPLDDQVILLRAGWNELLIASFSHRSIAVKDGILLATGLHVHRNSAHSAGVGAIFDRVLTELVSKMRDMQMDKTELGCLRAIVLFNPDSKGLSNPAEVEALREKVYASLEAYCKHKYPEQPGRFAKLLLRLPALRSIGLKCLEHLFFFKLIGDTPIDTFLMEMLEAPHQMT
As to the kind of experiment: Human PPARγ antagonist assay (luciferase reporter in transfected CV-1 cells). In kind it is cell-based. Particulars: CV-1 cells expressing human PPARγ and RXRα with reporter plasmid; pioglitazone 1 μM as stimulant; 24 hours; read-out: Human PPARγ antagonist activities, Inhibition IC50. Here is the method: CV-1 cells (96 well plate), where human PPARγ and RXRα has expressed in the transient transfection of reporter plasmid (see reference 5a) were washed once with PBS (100 μL/well), and then supplemented with 100 μL/well […], as well as pioglitazone (not limited to pioglitazone shown as an example, but may be any PPARγ agonist) at a final concentration of 1 μM as a stimulant were added, and incubated in a 5% CO2 incubator at 37° C. for 24 hours. After removing the medium, the CV-1 cells were washed once with PBS (100 μL/well), and supplemented with 60 μL/well of 1× Passive Lysis Buffer (manufactured by Promega Corporation). The CV-1 cells were incubated at room temperature for 30 minutes, stirred, and then by using Dual-Luciferase Reporter Assay System (manufactured by Promega Corporation), luciferase activities of firefly and renilla were measured using 1420 ARVO Multilabel Counter (manufactured by Wallac Oy). Also, the same experiments as that described above were respectively carried out for the cases where only the above-mentioned stimulants (100 nM, 1 μM, 10 μM) were used, where only the above-mentioned test compounds were used, or where neither was used (nonsupplemented), and luciferase activities of firefly and renilla were measured. Values corrected by dividing the firefly luciferase activities by the renilla luciferase activities were calculated as specific activities and used for evaluations.
Human PPARγ2 antagonist activities of the test compounds were evaluated by using a percentage (inhibition) where the specific activity in case only […] was added is regarded as 0% and the specific activity in case the test compound and the stimulant were not added is regarded as 100%. Moreover, the concentration of the test compound indicating the inhibition rate of 50% was calculated as the IC50 value. Also, human PPARγ2 agonist activities of the test compounds were evaluated by using a percentage (activity) where the specific activity when nonsupplemented is regarded as 0% and the specific activity in case only 10 μM stimulant was added is regarded as 100%, from the specific activity in case only the test compound is used.
CV-1 cells were cultured in DMEM medium (manufactured by Invitrogen Corporation) including 10% fetal bovine serum (manufactured by Dainippon Pharmaceutical Co., Ltd.) in 225T-Flask (manufactured by Corning Costar). The cells were detached by 0.5 g/L trypsin-0.2 g/L EDTA (ethylene diamine tetra-acetic acid) (manufactured by Invitrogen Corporation), and then suspended in the DMEM medium including 10% fetal bovine serum to a cell concentration of 2×10^5 cells/mL. Thereafter, the cells were seeded into 96 well plate at 2×10^4 cells/0.1 mL/well, incubated in the 5% CO2 incubator at 37° C. overnight, and then the plasmids prepared by the above-mentioned reference 1a, reference 3a, and reference 4a were transfected into cells by using a lipofectamine reagent (manufactured by Invitrogen Corporation) according to the attached manual.
Namely, after CV-1 cells were cultured overnight, the cells were washed with PBS (100 μL/well). Thereafter the cells were incubated for 5 hours at 37° C./5% CO2 in the MEM medium (manufactured by Invitrogen Corporation) including 430 ng/mL of human PPARγ expression plasmid (pCI-hPPARg2) prepared by the reference 1a, 430 ng/mL of human RXRα expression plasmid (pCI-hRXRa) prepared by the reference 3a, and 140 ng/mL of the reporter plasmid (pGL3-PPRE3-TK) prepared by the reference 4a, 10 ng/mL of phRL-TK vector (manufactured by Promega Corporation) and 2 μL/mL of lipofectamine.
For orientation: In a reporter assay the amount or activity of a reporter protein is the signal.
Consider `COc1cc(Cn2c3ccccc3c3c(OC(C(=O)O)c4ccccc4)cccc32)ccc1OCc1nc(-c2ccco2)oc1C` (racemic) [Example 6, (±)-2-{9-[4-((2-(furan-2-yl)-5-methyl-oxazole-4-yl)methoxy)-3-methoxy-benzyl]-9H-carbazole-4-yloxy}-2-phenylacetic acid], for which the half-inhibitory concentration (IC50) came out at 905 nM.
For the compound `COc1cc(Cn2c3ccccc3c3c(OC(C(=O)O)C(C)C)cccc32)ccc1OCc1nc(-c2ccccc2)oc1C` (racemic) [Example 10, (±)-2-{9-[3-methoxy-4-((5-methyl-2-phenyl-oxazole-4-yl)methoxy)-benzyl]-9H-carbazole-4-yloxy}-3-methyl-butyric acid], the IC50 was found to be 400 nM.
Consider `CCCC(Oc1cccc2c1c1ccccc1n2Cc1ccc(OCc2nc(-c3ccccc3)oc2C)c(OC)c1)C(=O)O` (racemic) [Example 11, (±)-2-{9-[3-methoxy-4-((5-methyl-2-phenyl-oxazole-4-yl)methoxy)-benzyl]-9H-carbazole-4-yloxy}valeric acid], for which the IC50 amounted to 281 nM.
On to `CCCCC(Oc1cccc2c1c1ccccc1n2Cc1ccc(OCc2nc(-c3ccccc3)oc2C)c(OC)c1)C(=O)O` (racemic) [Example 17, (±)-2-{9-[3-methoxy-4-((5-methyl-2-phenyl-oxazole-4-yl)methoxy)-benzyl]-9H-carbazole-4-yloxy}caproic acid], for which the IC50 turned out to be 320 nM.
For the compound `CCCCCC(Oc1cccc2c1c1ccccc1n2Cc1ccc(OCc2nc(-c3ccccc3)oc2C)c(OC)c1)C(=O)O` (racemic) [Example 18, (±)-2-{9-[3-methoxy-4-((5-methyl-2-phenyl-oxazole-4-yl)methoxy)-benzyl]-9H-carbazole-4-yloxy}heptane acid], the concentration for half-maximal inhibition (IC50) was determined as 829 nM.
Take `CCCCCCC(Oc1cccc2c1c1ccccc1n2Cc1ccc(OCc2nc(-c3ccccc3)oc2C)c(OC)c1)C(=O)O` (racemic) [Example 19, (±)-2-{9-[3-methoxy-4-((5-methyl-2-phenyl-oxazole-4-yl)methoxy)-benzyl]-9H-carbazole-4-yloxy}caprylic acid]: the concentration for half-maximal inhibition (IC50) was determined as 882 nM.
`COc1cc(Cn2c3ccccc3c3c(OC(C(=O)O)c4ccccc4)cccc32)ccc1OCc1nc(-c2ccccc2)oc1C` (racemic) [Example 26, (±)-2-{9-[3-methoxy-4-((5-methyl-2-phenyl-oxazole-4-yl)methoxy)-benzyl]-9H-carbazole-4-yloxy}-2-phenylacetic acid]: the IC50 turned out to be 546 nM.
Consider `COc1cc(Cn2c3ccccc3c3c(OC(C(=O)O)c4ccccc4)cccc32)ccc1OCc1nc(-c2ccccc2)oc1C` (racemic) [Example 36], for which the concentration for half-maximal inhibition (IC50) was 596 nM.
Regarding `COc1cc(Cn2c3ccccc3c3c(OC(C(=O)O)c4ccccc4)cccc32)ccc1OCc1nc(-c2ccccc2)oc1C` (single isomer, unassigned) [Example 50, sodium (+)-2-{9-[3-methoxy-4-((5-methyl-2-phenyl-oxazole-4-yl)methoxy)-benzyl]-9H-carbazole-4-yloxy}-2-phenylacetate], the IC50 turned out to be 471 nM.
Take `COc1cc(Cn2c3ccccc3c3c(OC(C(=O)O)c4ccccc4)cccc32)ccc1OCc1nc(-c2ccccc2)oc1C` (single isomer, unassigned) [Example 51, sodium (−)-2-{9-[3-methoxy-4-((5-methyl-2-phenyl-oxazole-4-yl)methoxy)-benzyl]-9H-carbazole-4-yloxy}-2-phenylacetate]: the IC50 is 2190 nM.
On to `COc1cc(Cn2c3ccccc3c3c(OCCC(C)C(=O)O)cccc32)ccc1OCc1nc(-c2ccccc2)oc1C` (single isomer, unassigned) [Example 52, sodium (−)-4-{9-[3-methoxy-4-((5-methyl-2-phenyl-oxazole-4-yl)methoxy)-benzyl]-9H-carbazole-4-yloxy}-2-methyl-butyrate], for which the IC50 came to 173 nM.
As to `COc1cc(Cn2c3ccccc3c3c(OCCC(C)C(=O)O)cccc32)ccc1OCc1nc(-c2ccccc2)oc1C` (single isomer, unassigned) [Example 53, sodium (+)-4-{9-[3-methoxy-4-((5-methyl-2-phenyl-oxazole-4-yl)methoxy)-benzyl]-9H-carbazole-4-yloxy}-2-methyl-butyrate], the half-maximal inhibitory concentration (IC50) worked out at 382 nM.
On the same count and under the same terms, under `COc1cc(Cn2c3ccccc3c3c(OCC(=O)O)cccc32)ccc1OCc1nc(-c2ccccc2)oc1C` [Example 1, 2-{9-[3-methoxy-4-((5-methyl-2-phenyl-oxazole-4-yl)methoxy)-benzyl]-9H-carbazole-4-yloxy}acetic acid] stands 3150 nM.
On to `COc1cc(Cn2c3ccccc3c3c(OCCCC(=O)O)cccc32)ccc1OCc1nc(-c2ccccc2)oc1C` [Example 12, 4-{9-[3-methoxy-4-((5-methyl-2-phenyl-oxazole-4-yl)methoxy)-benzyl]-9H-carbazole-4-yloxy}butyric acid], for which the IC50 turned out to be 725 nM.
With `COc1cc(Cn2c3ccccc3c3c(OCCCCC(=O)O)cccc32)ccc1OCc1nc(-c2ccccc2)oc1C` [Example 20, 5-{9-[3-methoxy-4-((5-methyl-2-phenyl-oxazole-4-yl)methoxy)-benzyl]-9H-carbazole-4-yloxy}valeric acid], the IC50 was 1600 nM.
`COc1cc(Cn2c3ccccc3c3c(OCCCCCC(=O)O)cccc32)ccc1OCc1nc(-c2ccccc2)oc1C` [Example 21, 6-{9-[3-methoxy-4-((5-methyl-2-phenyl-oxazole-4-yl)methoxy)-benzyl]-9H-carbazole-4-yloxy}caproic acid]: the 50% inhibitory concentration (IC50) is 5060 nM.
With `COc1cc(Cn2c3ccccc3c3c(OCC(=O)O)cccc32)ccc1OCc1nc(-c2ccccc2)oc1C` [Example 29], the IC50 came out at 2460 nM.
For `COc1cc(Cn2c3ccccc3c3c(OCCCC(=O)O)cccc32)ccc1OCc1nc(-c2ccccc2)oc1C` [Example 33], the 50% inhibitory concentration (IC50) is 1380 nM.
For `COc1cc(Cn2c3ccccc3c3c(OCC(C)(C)C(=O)O)cccc32)ccc1OCc1nc(-c2ccncc2)oc1C` [Example 35], the IC50 was found to be 509 nM.

The same experiment, now with this note: at 10 μM test compound; CV-1 cells expressing human PPARγ and RXRα; pioglitazone as stimulant; read-out: Human PPARγ antagonist activities, Inhibition % at 10 μM.
`COc1cc(Cn2c3ccccc3c3c(OCC(=O)O)cccc32)ccc1OCc1nc(-c2ccco2)oc1C` [Example 2, 2-{9-[4-((2-(furan-2-yl)-5-methyl-oxazole-4-yl)methoxy)-3-methoxy-benzyl]-9H-carbazole-4-yloxy}acetic acid]: the inhibition at 10 µM came out at 47.4%.

For the origin of these results see US8329913B2, “Carbazole derivative, solvate thereof, or pharmaceutically acceptable salt thereof” (Zeria Pharmaceutical Co., Ltd., priority 2004, dated 2012).
